US9999222B2, “Herbicidal combination comprising azines” (BASF SE, priority 2014, dated 2018)
Values joined by “and” are separate entries in the source; they are usually repeats but may differ in a detail not shown here. Identical values can stand only once. Like-named read-outs stand apart in the source and are kept apart here.

Assays:
Assay in all cases: Greenhouse test, pre-emergence treatment
EPHHL = assay type: in vivo, Euphorbia heterophylla; conditions: pre-emergence
Text: (§1) The culture containers used were plastic flowerpots containing loamy sand with approximately 3.0% of humus as the substrate. The seeds of the test plants were sown separately for each species.
(§2) For the pre-emergence treatment, the active ingredients, which had been suspended or emulsified in water, were applied directly after sowing by means of finely distributing nozzles. The containers were irrigated gently to promote germination and growth and subsequently covered with transparent plastic hoods until the plants had rooted. This cover caused uniform germination of the test plants, unless this had been impaired by the active ingredients.
(§3) Depending on the species, the plants were kept at 10-25° C. or 20-35° C., respectively.
(§4) The test period extended over 2 to 4 weeks. During this time, the plants were tended, and their response to the individual treatments was evaluated.
(§5) Evaluation was carried out using a scale from 0 to 100. 100 means no emergence of the plants, or complete destruction of at least the aerial moieties, and 0 means no damage, or normal course of growth. A moderate herbicidal activity is given at values of at least 60, a good herbicidal activity is given at values of at least 70, and a very good herbicidal activity is given at values of at least 85.
(§6) The respective stated components a and b, and if appropriate, c were formulated as a 10% by weight strength emulsion concentrate and, with addition of the amount of solvent system, introduced into the spray liquor used for applying the active compound.
(§7) In the examples, the solvent used was water.
(§8) In the examples below, using the method of S. R. Colby (1967) “Calculating synergistic and antagonistic responses of herbicide combinations”, Weeds 15, p. 22ff., the value E, which is expected if the activity of the individual active compounds is only additive, was calculated. E=X+Y−(X·Y/100) where • X=percent activity using active compound a at an application rate A; • Y=percent activity using active compound b at an application rate B; • E=expected activity (in %) by a+b at application rates A+B.
(§9) If the value found experimentally is higher than the value E calculated according to Colby, a synergistic effect is present.

POLCO = assay type: in vivo, Polygonum convolvulus; conditions: pre-emergence
Text: as §1, §2, §3, §4, §5, §6, §7, §8, §9

KCHSC = assay type: in vivo, Kochia scoparia; conditions: pre-emergence
Text: as §1, §2, §3, §4, §5, §6, §7, §8, §9

ABUTH = assay type: in vivo, Abutilon theophrasti; conditions: Abutilon theophrasti, 480 h
Text: as §1, §2, §3, §4, §5, §6, §7, §8, §9

COMBE = assay type: in vivo, Commelina benghalensis; conditions: Commelina benghalensis, pre-emergence, 480 h
Text: as §1, §2, §3, §4, §5, §6, §7, §8, §9

SIDRH = assay type: in vivo, Sida rhombifolia; conditions: Sida rhombifolia, pre-emergence, 480 h
Text: as §1, §2, §3, §4, §5, §6, §7, §8, §9

CENCY = assay type: in vivo; conditions: 480 h, individual, read-out: observed % activity 20 DAT
IPOHE = assay type: in vivo, Ipomoea hederacea; conditions: Ipomoea hederacea, 480 h
Text: as §1, §2, §3, §4, §5, §6, §7, §8, §9

GERPU = assay type: in vivo, Geranium pusillum; conditions: Geranium pusillum, pre-emergence, 480 h
Text: as §1, §2, §3, §4, §5, §6, §7, §8, §9

GALAP = assay type: in vivo, Galium aparine; conditions: pre-emergence
Text: as §1, §2, §3, §4, §5, §6, §7, §8, §9

ANTAR = assay type: in vivo; conditions: Anthemis arvensis, 480 h, 20 DAT, read-out: observed % activity
Text: as §1, §2, §3, §4, §5, §6, §7, §8, §9

ALOMY = assay type: in vivo, Alopecurus myosuroides; conditions: Alopecurus myosuroides, pre-emergence, 480 h
Text: as §1, §2, §3, §4, §5, §6, §7, §8, §9

SETFA = assay type: in vivo, Setaria faberi; conditions: SETFA, use rate 25 g ai/ha, 20 DAT
Text: as §1, §2, §3, §4, §5, §6, §7, §8, §9

[1] = 375 g ai/ha, 20 DAT, read-out: observed % activity
[2] = 750 g ai/ha, 20 DAT, read-out: observed % activity
[3] = 15 g ai/ha, read-out: observed % activity 20 DAT
[4] = 20 g ai/ha, 20 DAT, read-out: observed % activity
[5] = 30 g ai/ha, read-out: observed % activity 20 DAT
[6] = 40 g ai/ha, 20 DAT, read-out: observed % activity

`CC(C)c1ccc(NC(=O)N(C)C)cc1` [Isoproturon, isoproturon] was tested, and the “observed % activity 20 DAT” value (EPHHL; EPHHL, individual, use rate 250 g ai/ha) was 10% and 25%, the inhibition at 500 g/ha (EPHHL; Euphorbia heterophylla, 480 h, EPHHL, individual, use rate 500 g ai/ha, read-out: observed % activity 20 DAT) was 35% and the inhibition at 375 g/ha (POLCO; Fallopia convolvulus, 480 h, 375 g ai/ha, 20 DAT, read-out: observed % activity) was 0%. For the same compound, the inhibition at 750 g/ha (POLCO; Fallopia convolvulus, 480 h, 750 g ai/ha, 20 DAT, read-out: observed % activity) was 25%, the inhibition at 250 g/ha (POLCO; Fallopia convolvulus, 480 h, POLCO, individual, use rate 250 g ai/ha, read-out: observed % activity 20 DAT) was 10% and the inhibition at 750 g/ha (KCHSC; Bassia scoparia, 480 h, 750 g ai/ha, 20 DAT, read-out: observed % activity) was 98%. For the same compound, the inhibition at 250 g/ha (KCHSC; Bassia scoparia, 480 h, KCHSC, individual, use rate 250 g ai/ha, read-out: observed % activity 20 DAT) was 98%, the inhibition at 500 g/ha (KCHSC; Bassia scoparia, 480 h, KCHSC, individual, use rate 500 g ai/ha, read-out: observed % activity 20 DAT) was 98% and the inhibition at 375 g/ha (ABUTH; [1]) was 20%. The inhibition at 750 g/ha (ABUTH; [2]) was 65%, the inhibition at 250 g/ha (ABUTH; ABUTH, individual, use rate 250 g ai/ha, read-out: observed % activity 20 DAT) was 50% and the inhibition at 500 g/ha (ABUTH; ABUTH, individual, use rate 500 g ai/ha, read-out: observed % activity 20 DAT) was 15%. The inhibition at 375 g/ha (COMBE; [1]) was 0%, the inhibition at 750 g/ha (COMBE; [2]) was 45% and the inhibition at 250 g/ha (COMBE; COMBE, individual, use rate 250 g ai/ha, read-out: observed % activity 20 DAT) was 0%. It also gave an inhibition at 500 g/ha (COMBE; COMBE, individual, use rate 500 g ai/ha, read-out: observed % activity 20 DAT) of 10%, an inhibition at 375 g/ha (SIDRH; [1]) of 0% and an inhibition at 250 g/ha (SIDRH; SIDRH, individual, use rate 250 g ai/ha, read-out: observed % activity 20 DAT) of 0%. The inhibition at 500 g/ha (SIDRH; SIDRH, individual, use rate 500 g ai/ha, read-out: observed % activity 20 DAT) was 40%, the inhibition at 250 g/ha (CENCY; use rate 250 g ai/ha) was 30% and the inhibition at 500 g/ha (CENCY; use rate 500 g ai/ha) was 30%. For the same compound, the inhibition at 750 g/ha (IPOHE; [2]) was 40%, the inhibition at 375 g/ha (GERPU; [1]) was 20% and the inhibition at 750 g/ha (GERPU; [2]) was 40%. For the same compound, the inhibition at 500 g/ha (GERPU; GERPU, individual, use rate 500 g ai/ha, read-out: observed % activity 20 DAT) was 0%, the “observed % activity 20 DAT” value (GALAP; GALAP, individual, use rate 500 g ai/ha) was 65% and 15% and the inhibition at 250 g/ha (GALAP; Galium aparine, 480 h, GALAP, individual, use rate 250 g ai/ha, read-out: observed % activity 20 DAT) was 30%.

`CCc1cnc(C2=NC(C)(C(C)C)C(=O)N2)c(C(=O)O)c1` (stereo not shown) [imazethapyr] was tested, and the inhibition at 30 g/ha (EPHHL; Euphorbia heterophylla, 480 h, 30 g ai/ha, read-out: observed % activity 20 DAT) was 65%, the inhibition at 20 g/ha (POLCO; Fallopia convolvulus, 480 h, 20 g ai/ha, 20 DAT, read-out: observed % activity) was 35% and the inhibition at 40 g/ha (POLCO; Fallopia convolvulus, 480 h, 40 g ai/ha, 20 DAT, read-out: observed % activity) was 90%. For the same compound, the inhibition at 15 g/ha (POLCO; Fallopia convolvulus, 480 h, 15 g ai/ha, read-out: observed % activity 20 DAT) was 30%, the inhibition at 30 g/ha (POLCO; Fallopia convolvulus, 480 h, 30 g ai/ha, read-out: observed % activity 20 DAT) was 65% and the “observed % activity 20 DAT” value (POLCO; 30 g ai/ha) was 60%. It also gave an inhibition at 15 g/ha (KCHSC; Bassia scoparia, 480 h, 15 g ai/ha, read-out: observed % activity 20 DAT) of 70%, an inhibition at 30 g/ha (KCHSC; Bassia scoparia, 480 h, 30 g ai/ha, read-out: observed % activity 20 DAT) of 85% and an inhibition at 15 g/ha (ABUTH; [3]) of 0%. The inhibition at 20 g/ha (ABUTH; [4]) was 60%, the inhibition at 30 g/ha (ABUTH; [5]) was 15% and the inhibition at 40 g/ha (ABUTH; [6]) was 80%. It also gave an inhibition at 20 g/ha (COMBE; [4]) of 45%, an inhibition at 40 g/ha (COMBE; [6]) of 65% and an inhibition at 15 g/ha (COMBE; [3]) of 0%. For the same compound, the inhibition at 30 g/ha (COMBE; [5]) was 35%, the inhibition at 20 g/ha (SIDRH; [4]) was 45% and the inhibition at 40 g/ha (SIDRH; [6]) was 80%. For the same compound, the inhibition at 15 g/ha (SIDRH; [3]) was 15%, the inhibition at 30 g/ha (SIDRH; [5]) was 60% and the inhibition at 30 g/ha (IPOHE; [5]) was 0%. For the same compound, the inhibition at 20 g/ha (ANTAR; 20 g ai/ha) was 30%, the inhibition at 40 g/ha (ANTAR; 40 g ai/ha) was 30% and the inhibition at 20 g/ha (GERPU; [4]) was 20%. For the same compound, the inhibition at 40 g/ha (GERPU; [6]) was 85%, the inhibition at 15 g/ha (GERPU; [3]) was 30% and the inhibition at 30 g/ha (GERPU; [5]) was 30%. The inhibition at 15 g/ha (GALAP; Galium aparine, 480 h, 15 g ai/ha, read-out: observed % activity 20 DAT) was 50% and the inhibition at 30 g/ha (GALAP; Galium aparine, 480 h, 30 g ai/ha, read-out: observed % activity 20 DAT) was 60%.

`CCOCN(C(=O)CCl)c1c(C)cccc1CC` [acetochlor] showed an inhibition at 125 g/ha (KCHSC; Bassia scoparia, 480 h, 125 g ai/ha, 20 DAT, read-out: observed % activity) of 0%, an inhibition at 125 g/ha (ALOMY; 125 g ai/ha, 20 DAT, read-out: observed % activity) of 0% and an inhibition at 125 g/ha (GALAP; Galium aparine, 480 h, 125 g ai/ha, 20 DAT, read-out: observed % activity) of 60%.

For `O=C(Nc1ccc(F)cc1)c1cccc(Oc2cccc(C(F)(F)F)c2)n1` [Picolinafen, picolinafen], the “observed % activity 20 DAT” value (POLCO; POLCO, use rate 25 g ai/ha, 20 DAT) was 0%, the “observed % activity 20 DAT” value (POLCO; POLCO, use rate 50 g ai/ha, 20 DAT) was 0% and the “observed % activity 20 DAT” value (KCHSC; KCHSC, use rate 50 g ai/ha, 20 DAT) was 30%. The “observed % activity 20 DAT” value (SETFA) was 10%.

`O=C(O)CNCP(=O)(O)O` [Glyphosate, glyphosate] gave an inhibition at 125 g/ha (ALOMY; read-out: observed % activity 20 DAT) of 0%.
